The values below are quoted from earlier work in PubChem BioAssay AID1259410 (Chemical Carcinogenesis Research Information System (CCRIS), 2018).

The data set deals with rodent tumor promotion studies, tumor incidence. Nature of the data set: CCRIS tumor promotion studies.
The mark [1] stands for this setting: Carcinogen: 7,12-DIMETHYLBENZ(A)ANTHRACENE, Doses [Carcinogen]: TOP, Route [Carcinogen]: DERMAL, Route [Promoter]: DERMAL, Species: MOUSE, Strain/Sex: FEMALE.

As for `Nc1ncn[nH]1`, under “Carcinogen: N-BIS(2-HYDROXYPROPYL)NITROSAMINE, Doses [Carcinogen]: 70 MG/100 G BW 1/WK FOR 4 WK, Doses [Promoter]: 2000 PPM IN DIET FOR 12 WK BEGINNING 1 WK AFTER INITIATION, Route [Carcinogen]: SUBCUTANEOUS, Route [Promoter]: ORAL, Species: RAT, Strain/Sex: WISTAR/MALE”, the outcome is “thyroid gland: adenoma, carcinoma”.
Take `Cc1ccc(O)c(C(C)(C)C)c1`: the outcome (Carcinogen: N-BUTYL-N-(4-HYDROXYBUTYL)NITROSAMINE, 3817-11-6, Doses [Carcinogen]: 0.5% IN DRINKING WATER FOR 4 WK, Doses [Promoter]: 0, 1% IN DIET FOR 32 WK BEGINNING 3 D POST CARCINOGEN TREATMENT (STUDY DURATION: 36 WK), Route [Carcinogen]: ORAL, Route [Promoter]: ORAL, Species: RAT, Strain/Sex: F344/MALE) is “bladder: carcinoma, papilloma”.
Turning to `CC1=C[C@H]2[C@@]3(O)[C@H](C)[C@@H](OC(=O)c4ccccc4)[C@]4(OC(=O)c5ccccc5)[C@H]([C@@H]3C=C(CO)C[C@]2(O)C1=O)C4(C)C`, for the setting “Carcinogen: 7,12-DIMETHYLBENZ(A)ANTHRACENE, Doses [Carcinogen]: TOP, Route [Carcinogen]: DERMAL, Route [Promoter]: DERMAL, Species: MOUSE, Strain/Sex: MALE,FEMALE”, the outcome is “integumentary system (skin)”.
As for `CCCCCCCCCC`, the outcome is listed as “integumentary system (skin)” under setting [1] and “integumentary system (skin)” (Carcinogen: BENZO(A)PYRENE, Doses [Carcinogen]: TOP, Route [Carcinogen]: DERMAL, Route [Promoter]: DERMAL, Species: MOUSE, Strain/Sex: FEMALE).
Take `N`: the outcome is, setting by setting: (Carcinogen: N-METHYL-N'-NITRO-N-NITROSOGUANIDINE, 70-25-7, Doses [Carcinogen]: 83 MG/L IN DRINKING WATER FOR 24 WK, Doses [Promoter]: 0, 0.01% IN DRINKING WATER BEGINNING POST LAST CARCINOGEN DOSE AND CONTINUING FOR 24 WK (STUDY DURATION: 48 WK), Route [Carcinogen]: ORAL, Route [Promoter]: ORAL, Species: RAT, Strain/Sex: SPRAGUE-DAWLEY/MALE) “stomach: tumor”; (Carcinogen: N-METHYL-N'-NITRO-N-NITROSOGUANIDINE, 70-25-7, Doses [Carcinogen]: 83 MG/L IN DRINKING WATER FOR 24 WK, Doses [Promoter]: 0, 0.01% IN DRINKING WATER FOR 24 WK BEGINNING POST CARCINOGEN TREATMENT (STUDY DURATION: 48 WK), Route [Carcinogen]: ORAL, Route [Promoter]: ORAL, Species: RAT, Strain/Sex: SPRAGUE-DAWLEY/MALE) “stomach: adenocarcinoma”.
Regarding `CCOC(=O)C#Cc1ccccc1`, the outcome reads like this: (Carcinogen: 7,12-DIMETHYLBENZ[A]ANTHRACENE, 57-97-6, Doses [Carcinogen]: 10 NMOL (2.5 UG IN 200 µL ACETONE), Doses [Promoter]: 5 MG 2/WK FOR 40 WK BEGINNING 2 WK POST CARCINOGEN TREATMENT (STUDY DURATION: 42 WK), Route [Carcinogen]: DERMAL, Route [Promoter]: DERMAL, Species: MOUSE, Strain/Sex: SENCAR/FEMALE) “skin: tumor”; (Carcinogen: 7,12-DIMETHYLBENZ[A]ANTHRACENE, 57-97-6, Doses [Carcinogen]: 100 NMOL, Doses [Promoter]: 3, 5 MG 2/WK FOR 40 WK BEGINNING 2 WK POST CARCINOGEN TREATMENT (STUDY DURATION: 42 WK), Route [Carcinogen]: DERMAL, Route [Promoter]: DERMAL, Species: MOUSE, Strain/Sex: SENCAR/FEMALE) “skin: tumor”.
Regarding `O=C(OO)c1cccc(Cl)c1`, the outcome under setting [1] is recorded as “integumentary system (skin)”.
For the compound `CCC(C(=O)NC(N)=O)c1ccccc1` (stereo unspecified), for the setting “Carcinogen: N-NITROSODIETHYLAMINE, 55-18-5, Doses [Carcinogen]: 75 MG IN STERILE SALINE ONCE, Doses [Promoter]: 0, 444 PPM IN DIET BEGINNING 2 WK POST CARCINOGEN DOSE AND CONTINUING FOR DURATION OF STUDY (STUDY DURATION: 78 WK), Route [Carcinogen]: INTRAPERITONEAL, Route [Promoter]: ORAL, Species: RAT, Strain/Sex: F344/MALE”, the outcome is “liver: hepatocellular adenoma”.
`CC(C)(C)NC(=O)[C@H]1CC[C@H]2[C@@H]3CC=C4C=C(C(=O)O)CC[C@]4(C)[C@H]3CC[C@]12C`: where the note is “Carcinogen: 3,2'-DIMETHYL-4-AMINOBIPHENYL, 13394-86-0, Doses [Carcinogen]: 50 MG/KG BW ONCE/2 WK FOR FIRST 20 WK, Doses [Promoter]: 0, 10, 50 MG/KG BW BY GAVAGE 3X/WK FOR 40 WK BEGINNING 20 WK POST CARCINOGEN TREATMENT (STUDY DURATION: 60 WK), Doses [Promoter]: 0, 10, 50 MG/KG BW BY GAVAGE 3X/WK FOR 40 WK BEGINNING 20 WK POST CARCINOGEN TREATMENT (STUDY DURATION: 60 WK), Route [Carcinogen]: SUBCUTANEOUS, Route [Promoter]: ORAL, Species: RAT, Strain/Sex: F344/MALE”, the outcome was “prostate (ventral): adenocarcinoma”.
Take `Oc1ccccc1`: the outcome (Carcinogen: 7,12-DIMETHYLBENZ(A)ANTHRACENE, Doses [Carcinogen]: 75 UG, SINGLE DOSE, Doses [Promoter]: 0, 2.5 MG 2/WK FOR 42 WK, Route [Carcinogen]: DERMAL, Route [Promoter]: DERMAL, Species: MOUSE, Strain/Sex: FEMALE) is listed as “integumentary system (skin): carcinoma”.
With `O=C(CCNNC(=O)c1ccncc1)NCc1ccccc1`, the outcome (Carcinogen: N-METHYL-N'-NITRO-NITROSOGUANIDINE, Doses [Carcinogen]: 25 UG/ML IN DRINKING WATER FOR 25 WK, Doses [Promoter]: 0, 50 MG/KG IN OLIVE OIL 1/2D FOR 26 WK ADMINISTERED POST CARCINOGEN DOSES (STUDY DURATION: 52 WK), Route [Carcinogen]: ORAL, Route [Promoter]: SUBCUTANEOUS, Species: RAT, Strain/Sex: WISTAR/MALE) is on record as “glandular stomach: adenocarcinoma”.
Turning to `O=P(O)(O)OC1C(OP(=O)(O)O)C(OP(=O)(O)O)C(OP(=O)(O)O)C(OP(=O)(O)O)C1OP(=O)(O)O` (stereo unspecified), the outcome (Carcinogen: N-BUTYL-N-(4-HYDROXYBUTYL)NITROSAMINE, 3817-11-6, Doses [Carcinogen]: 0.05% IN DRINKING WATER FOR 4 WK, Doses [Promoter]: 0, 2% IN DIET BEGINNING POST CARCINOGEN TREATMENT AND CONTINUING FOR 32 WK (STUDY DURATION: 36 WK), Route [Carcinogen]: ORAL, Route [Promoter]: ORAL, Species: RAT, Strain/Sex: F344/MALE) was “urinary bladder: papilloma, carcinoma”.
In the case of `[O-][Cl+3]([O-])([O-])O`, the outcome is, setting by setting: (Carcinogen: N-bis(2-hydroxypropyl)nitrosamine, 53609-64-6, Doses [Carcinogen]: 0.08 and 0.2% in drinking water for 4 wks at 7-10 wks of age, study duration to 39 wk of age, Doses [Promoter]: In utero (0.1% in diet of dams) and then in drinking water of weaned offspring for 2 wk. Dimethylbenz[a]anthracene, 57-9, Route [Carcinogen]: Oral, Route [Promoter]: In utero and in drinking water, Species: Rat, Strain/Sex: F344/Female (23, 16/group)) “thyroid: no increase in tumors even though increased follicular cell hyperplasia”; (Carcinogen: N-bis(2-hydroxypropyl)nitrosamine, 53609-64-6, Doses [Carcinogen]: 0.08 and 0.2% in drinking water for 4 wks at 7-10 wks of age, study duration to 39 wk of age, Doses [Promoter]: In utero (0.1% in diet of dams) and then in drinking water of weaned offspring for 2 wk, Route [Carcinogen]: Oral, Route [Promoter]: In utero and in drinking water, Species: Rat, Strain/Sex: F344/Male (12-15/group)) “none found”.
In the case of `CCCCCCCCC1=C(CCCCCCCC(=O)OC)C1`, the outcome (Doses [Carcinogen]: DIET, Doses [Promoter]: DIET, Route [Carcinogen]: ORAL, Route [Promoter]: ORAL, Species: FISH, Strain/Sex: RAINBOW TROUT/MALE,FEMALE) is reported as “liver”.
With `C=C/C=C\C1C2/C=C/CC(=O)O[C@@]34C[C@@H](C)[C@]5(O)C6C=C(C)C(=O)[C@@]6(O)CC(CO)=C[C@H]5[C@@H]3[C@@]4(C)COC(=O)C2C2C(/C=C/C=C/C=C/CCC)C12` (stereo partly specified), the outcome (Carcinogen: 7,12-DIMETHYLBENZ[A]ANTHRACENE, 57-97-6, Doses [Carcinogen]: 100 UG IN O.1 ML ACETONE, Doses [Promoter]: 0, 2 UG IN 0.1 ML OF METHANOL 2/WK FOR 16 WK BEGINNING 1 WK POST CARCINOGEN DOSE THEN 5 UG 2/WK FOR 13 WK (STUDY DURATIO, Route [Carcinogen]: DERMAL, Route [Promoter]: DERMAL, Species: MOUSE, Strain/Sex: CD-1/FEMALE) is given as “skin: tumor”.
Regarding `COc1ccc2c(c1)c(CC(=O)O)c(C)n2C(=O)c1ccc(Cl)cc1`, the outcome (Carcinogen: N-(4-(5-NITRO-2-FURYL)-2-THIAZOLYL)FORMAMIDE, 24554-26-5, Doses [Carcinogen]: 0.2% IN DIET FOR 7 WK, Doses [Promoter]: 0, 1 MG/KG/D IN DRINKING WATER FOR DURATION OF STUDY (STUDY DURATION: 92 WK), Route [Carcinogen]: ORAL, Route [Promoter]: ORAL, Species: RAT, Strain/Sex: SPRAGUE-DAWLEY/FEMALE) is “urinary tract: tumor”.
As to `O=S(=O)(O)NC1CCCCC1`, where the note is “Carcinogen: METHYLNITROSOUREA, Doses [Carcinogen]: BLADDER IMP, Doses [Promoter]: IN DIET, Route [Carcinogen]: BLADDER IMPLANT, Route [Promoter]: ORAL, Species: RAT, Strain/Sex: WISTAR/FEMALE”, the outcome is given as “urinary bladder”.
